How the values were obtained:
[1] = tested on: human adrenal gland section expressing aldosterone-producing adenoma; test: In vitro autoradiography using human adrenal adenoma; format: binding
Procedure, shortened: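 Autoradiography readout: PSL in equal-sized ROIs over adenoma (B2) and normal adrenal cortex (B1), expressed as B2/B1 and decay-corrected using half-life, applied activity and plate contact time. Tissue was surgically excised human adrenal, frozen and cut at 7 μm, incubated 10 min with 5-33 kBq/mL tracer in BSA-containing PBS, then imaged after 16-20 h exposure.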

[2] = In vivo kinetics experiment (radioactivity distribution); design: species or system Wistar male rat; details: rat; for Adrenal gland/blood ratio of radioactivity accumulation / Adrenal gland/fat ratio of radioactivity accumulation / Adrenal gland/kidney ratio of radioactivity accumulation / Adrenal gland/liver ratio of radioactivity accumulation / Adrenal gland/muscle ratio of radioactivity accumulation / Adrenal gland/small intestine ratio of radioactivity accumulation / Radioactivity distribution Adrenal gland / Radioactivity distribution Bladder (including urine) / Radioactivity distribution Blood / Radioactivity distribution Fat / Radioactivity distribution Femur / Radioactivity distribution Heart / Radioactivity distribution Kidney / Radioactivity distribution Large intestine / Radioactivity distribution Liver / Radioactivity distribution Lung / Radioactivity distribution Muscle (lower limbs) / Radioactivity distribution Remaining whole body / Radioactivity distribution Small intestine / Radioactivity distribution Spleen / Radioactivity distribution Stomach / Radioactivity distribution Testis / Radioactivity distribution Whole brain: caudal vein
Procedure, shortened: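 Tissue radioactivity (% ID/g) and adrenal-to-blood, liver, kidney, small intestine, muscle and fat ratios determined at 10, 30 and 60 min post-dose. Tracers (approximately 1 to 3.7 MBq, saline with 1 w/v % ascorbic acid) injected i.v. into caudal vein of anesthetized 9-week male Wistar rats; organs excised, weighed, counted.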

[3] = Plasma stability evaluation (TLC analysis); format: in vitro ADME; details: 37° C., 60 minutes
Method: Evaluation was made using a heparin-treated normal human plasma pool (Kohjin Bio Co., Ltd.). Compounds [^18F] 100, [^18F] 200, [^123I] 400, [^18F] 500, and [^123I] 601 to 610 obtained by the methods shown in Examples 2, 4, 7, 9, 11, 13, 15, 17, 19, 21, 23, 25, 27, and 29 were each added to the aforementioned human plasma (5 mL), and the obtained mixture was then incubated at 37° C. for 60 minutes. Thereafter, the mixture was centrifuged with addition of methanol, so that a deproteinization treatment was carried out. Thereafter, stability was evaluated by TLC analysis. As TLC analysis conditions, the TLC analysis conditions applied upon the above described synthesis of each compound were applied.

Fc1cc2nc(-c3cncc(Cn4ccnc4)c3)n(CCC[18F])c2cc1Cl [[^18F] 500, 6-Chloro-5-fluoro-1-(3-[^18F]fluoropropyl)-2-[5-(imidazol-1-ylmethyl)pyridin-3-yl]benzimidazole]
accumulation of radioactivity in adrenal gland section (autoradiogram) ([1]; FIGS. 18 to 31): accumulation of radioactivity was selectively observed in a region in which aldosterone-producing adenoma had been pathologically observed | B2/B1 accumulation ratio ([1]; section of FIG. 17(a)): 5.63 | B2 (PSL value, aldosterone-producing adenoma) ([1]; section of FIG. 17(a), site 71a): 3619 | B1 (PSL value, normal adrenal cortex) ([1]; section of FIG. 17(a), site 72a): 643 | accumulation of radioactivity in adrenal gland vs blood and peripheral tissues ([2]; Tables 9 to 22): high accumulation of radioactivity in adrenal gland was observed, in comparison to in blood and peripheral tissues | Adrenal gland/blood ratio of radioactivity accumulation ([2]; 10 min after administration): 158.10 ± 31.05 | Adrenal gland/fat ratio of radioactivity accumulation ([2]; 10 min after administration): 210.51 ± 56.26 | Adrenal gland/kidney ratio of radioactivity accumulation ([2]; 10 min after administration): 14.57 ± 3.27 | Adrenal gland/liver ratio of radioactivity accumulation ([2]; 10 min after administration): 3.45 ± 0.50 | Adrenal gland/muscle ratio of radioactivity accumulation ([2]; 10 min after administration): 74.08 ± 27.27 | Adrenal gland/small intestine ratio of radioactivity accumulation ([2]; 10 min after administration): 13.90 ± 1.21 | Radioactivity distribution Adrenal gland ([2]; 10 min after administration): 18.45 ± 3.39 % ID/g | Radioactivity distribution Bladder (including urine) ([2]; 10 min after administration): 0.86 ± 0.38 % ID/g | Radioactivity distribution Blood ([2]; 10 min after administration): 0.12 ± 0.02 % ID/g | Radioactivity distribution Fat ([2]; 10 min after administration): 0.09 ± 0.02 % ID/g | Radioactivity distribution Femur ([2]; 10 min after administration): 0.25 ± 0.01 % ID/g | Radioactivity distribution Heart ([2]; 10 min after administration): 0.31 ± 0.03 % ID/g | Radioactivity distribution Kidney ([2]; 10 min after administration): 1.28 ± 0.08 % ID/g | Radioactivity distribution Large intestine ([2]; 10 min after administration): 0.23 ± 0.03 % ID/g | Radioactivity distribution Liver ([2]; 10 min after administration): 5.32 ± 0.21 % ID/g | Radioactivity distribution Lung ([2]; 10 min after administration): 0.68 ± 0.08 % ID/g | Radioactivity distribution Muscle (lower limbs) ([2]; 10 min after administration): 0.27 ± 0.08 % ID/g | Radioactivity distribution Remaining whole body ([2]; 10 min after administration): 0.20 ± 0.02 % ID/g | Radioactivity distribution Small intestine ([2]; 10 min after administration): 1.32 ± 0.13 % ID/g | Radioactivity distribution Spleen ([2]; 10 min after administration): 0.93 ± 0.10 % ID/g | Radioactivity distribution Stomach ([2]; 10 min after administration): 0.86 ± 0.06 % ID/g | Radioactivity distribution Testis ([2]; 10 min after administration): 0.06 ± 0.01 % ID/g | Radioactivity distribution Whole brain ([2]; 10 min after administration): 0.02 ± 0.00 % ID/g | Adrenal gland/blood ratio of radioactivity accumulation ([2]; 30 min after administration): 206.39 ± 28.57 | Adrenal gland/fat ratio of radioactivity accumulation ([2]; 30 min after administration): 295.05 ± 101.53 | Adrenal gland/kidney ratio of radioactivity accumulation ([2]; 30 min after administration): 19.08 ± 3.40 | Adrenal gland/liver ratio of radioactivity accumulation ([2]; 30 min after administration): 4.39 ± 0.61 | Adrenal gland/muscle ratio of radioactivity accumulation ([2]; 30 min after administration): 160.44 ± 36.00 | Adrenal gland/small intestine ratio of radioactivity accumulation ([2]; 30 min after administration): 5.99 ± 1.25 | Radioactivity distribution Adrenal gland ([2]; 30 min after administration): 20.88 ± 2.82 % ID/g | Radioactivity distribution Bladder (including urine) ([2]; 30 min after administration): 2.02 ± 1.20 % ID/g | Radioactivity distribution Blood ([2]; 30 min after administration): 0.10 ± 0.01 % ID/g | Radioactivity distribution Fat ([2]; 30 min after administration): 0.07 ± 0.02 % ID/g | Radioactivity distribution Femur ([2]; 30 min after administration): 0.14 ± 0.01 % ID/g | Radioactivity distribution Heart ([2]; 30 min after administration): 0.25 ± 0.02 % ID/g | Radioactivity distribution Kidney ([2]; 30 min after administration): 1.10 ± 0.08 % ID/g | Radioactivity distribution Large intestine ([2]; 30 min after administration): 0.28 ± 0.04 % ID/g | Radioactivity distribution Liver ([2]; 30 min after administration): 4.76 ± 0.15 % ID/g | Radioactivity distribution Lung ([2]; 30 min after administration): 0.44 ± 0.02 % ID/g | Radioactivity distribution Muscle (lower limbs) ([2]; 30 min after administration): 0.13 ± 0.01 % ID/g | Radioactivity distribution Remaining whole body ([2]; 30 min after administration): 0.11 ± 0.01 % ID/g | Radioactivity distribution Small intestine ([2]; 30 min after administration): 3.54 ± 0.51 % ID/g | Radioactivity distribution Spleen ([2]; 30 min after administration): 0.41 ± 0.06 % ID/g | Radioactivity distribution Stomach ([2]; 30 min after administration): 1.11 ± 0.14 % ID/g | Radioactivity distribution Testis ([2]; 30 min after administration): 0.08 ± 0.01 % ID/g | Radioactivity distribution Whole brain ([2]; 30 min after administration): 0.01 ± 0.00 % ID/g | Adrenal gland/blood ratio of radioactivity accumulation ([2]; 60 min after administration): 214.22 ± 75.71 | Adrenal gland/fat ratio of radioactivity accumulation ([2]; 60 min after administration): 371.37 ± 112.38 | Adrenal gland/kidney ratio of radioactivity accumulation ([2]; 60 min after administration): 17.62 ± 3.44 | Adrenal gland/liver ratio of radioactivity accumulation ([2]; 60 min after administration): 7.45 ± 2.80 | Adrenal gland/muscle ratio of radioactivity accumulation ([2]; 60 min after administration): 210.35 ± 70.86 | Adrenal gland/small intestine ratio of radioactivity accumulation ([2]; 60 min after administration): 4.17 ± 1.22 | Radioactivity distribution Adrenal gland ([2]; 60 min after administration): 21.41 ± 4.42 % ID/g | Radioactivity distribution Bladder (including urine) ([2]; 60 min after administration): 3.87 ± 0.37 % ID/g | Radioactivity distribution Blood ([2]; 60 min after administration): 0.10 ± 0.02 % ID/g | Radioactivity distribution Fat ([2]; 60 min after administration): 0.06 ± 0.02 % ID/g | Radioactivity distribution Femur ([2]; 60 min after administration): 0.12 ± 0.03 % ID/g | Radioactivity distribution Heart ([2]; 60 min after administration): 0.24 ± 0.04 % ID/g | Radioactivity distribution Kidney ([2]; 60 min after administration): 1.23 ± 0.22 % ID/g | Radioactivity distribution Large intestine ([2]; 60 min after administration): 0.41 ± 0.09 % ID/g | Radioactivity distribution Liver ([2]; 60 min after administration): 3.08 ± 0.99 % ID/g | Radioactivity distribution Lung ([2]; 60 min after administration): 0.48 ± 0.04 % ID/g | Radioactivity distribution Muscle (lower limbs) ([2]; 60 min after administration): 0.11 ± 0.03 % ID/g | Radioactivity distribution Remaining whole body ([2]; 60 min after administration): 0.10 ± 0.02 % ID/g | Radioactivity distribution Small intestine ([2]; 60 min after administration): 5.36 ± 1.39 % ID/g | Radioactivity distribution Spleen ([2]; 60 min after administration): 0.32 ± 0.09 % ID/g | Radioactivity distribution Stomach ([2]; 60 min after administration): 1.66 ± 0.45 % ID/g | Radioactivity distribution Testis ([2]; 60 min after administration): 0.11 ± 0.03 % ID/g | Radioactivity distribution Whole brain ([2]; 60 min after administration): 0.02 ± 0.00 % ID/g | stability in human plasma [3]: hardly metabolized and decomposed in the plasma | Radiochemical purity after incubation in human plasma ([3]; TLC analysis): 88%

From patent US10358434B2, “2-(3-pyridinyl)-1H-benzimidazole derivative compound and medicament containing same” (NIHON MEDI-PHYSICS CO., LTD., priority 2014, dated 2019)
